Consider two compounds from ChEMBL document CHEMBL3352200, “Thio-sugar motif of functional CARB-pharmacophore for antineoplastic activity. Part 2” (Bioorg Med Chem Lett, 2014).

Data set [1] deals with A549. Kind of data set: Cytotoxicity against human A549 cells after 14 hrs by CCK-8 assay. The settings on record: A549, 14 h. Type of data set: functional, cell-based.
Data set [2] concerns HeLa. Kind of data set: Cytotoxicity against human HeLa cells after 14 hrs by CCK-8 assay. Type of data set: functional, cell-based.
Data set [3] deals with MCF7. Briefly: Cytotoxicity against human MCF7 cells after 14 hrs by CCK-8 assay. The class given is functional, cell-based. The settings on record: MCF7, 14 h. A general note: Tetrazolium assays rely on reduction of a dye to a coloured formazan, in cell work by metabolically active cells.
Data set [4] has as its system LoVo. Briefly: Cytotoxicity against human LoVo cells after 14 hrs by CCK-8 assay. Type of data set: functional, cell-based.
The nature of data set [5]: Cytotoxicity against human PNT2 cells at 8.6 to 2200 uM after 14 hrs by CCK-8 assay. The class given is cell-based. The settings on record: pnt2, 14 h.
The subject of data set [6] is LoVo. Kind of data set: Induction of apoptosis in human LoVo cells assessed as viable cells at 69 uM after 4 hrs by FITC Annexin-V/propidium iodide staining-based flow cytometry (reference value: 79.50%). The settings on record: read-out: Activity. The class given is functional.
In data set [7] the test system is LoVo. Kind of data set: Induction of apoptosis in human LoVo cells assessed as viable cells at 550 uM after 4 hrs by FITC Annexin-V/propidium iodide staining-based flow cytometry (reference value: 79.50%). The class given is functional. The settings on record: read-out: Activity.
Data set [8] relates to LoVo. Kind of data set: Induction of apoptosis in human LoVo cells assessed as apoptotic cells at 69 uM after 4 hrs by FITC Annexin-V/propidium iodide staining-based flow cytometry (reference value: 20.50%). Type of data set: functional.
Data set [9] relates to LoVo. Kind of data set: Induction of apoptosis in human LoVo cells assessed as apoptotic cells at 550 uM after 4 hrs by FITC Annexin-V/propidium iodide staining-based flow cytometry (reference value: 20.50%). Type of data set: functional. (In general: In flow cytometry, cells or beads pass a laser one at a time.)
The test system of data set [10] is A549. Briefly: Induction of apoptosis in human A549 cells assessed as viable cells at 69 uM after 4 hrs by FITC Annexin-V/propidium iodide staining-based flow cytometry (reference value: 84.40%). The class given is functional. As to conditions: A549, 4 h, read-out: Activity.
Data set [11] deals with A549. Briefly: Induction of apoptosis in human A549 cells assessed as viable cells at 550 uM after 4 hrs by FITC Annexin-V/propidium iodide staining-based flow cytometry (reference value: 84.40%). Type of data set: functional. The settings on record: A549, 4 h, read-out: Activity.
Data set [12] has as its system A549. Briefly: Induction of apoptosis in human A549 cells assessed as apoptotic cells at 69 uM after 4 hrs by FITC Annexin-V/propidium iodide staining-based flow cytometry (reference value: 15.60%). Type of data set: functional.
For data set [13], the system named is A549. Briefly: Induction of apoptosis in human A549 cells assessed as apoptotic cells at 550 uM after 4 hrs by FITC Annexin-V/propidium iodide staining-based flow cytometry (reference value: 15.60%). Type of data set: functional.
The subject of data set [14] is MCF7. Briefly: Induction of apoptosis in human MCF7 cells assessed as viable cells at 34 uM after 4 hrs by FITC Annexin-V/propidium iodide staining-based flow cytometry (reference value: 70.40%). The class given is functional. The settings on record: MCF7, 4 h, read-out: Activity.
Data set [15] concerns MCF7. Briefly: Induction of apoptosis in human MCF7 cells assessed as viable cells at 275 uM after 4 hrs by FITC Annexin-V/propidium iodide staining-based flow cytometry (reference value: 70.40%). Type of data set: functional. As to conditions: MCF7, 4 h, read-out: Activity.
Data set [16] relates to MCF7. Briefly: Induction of apoptosis in human MCF7 cells assessed as apoptotic cells at 34 uM after 4 hrs by FITC Annexin-V/propidium iodide staining-based flow cytometry (reference value: 29.60%). The class given is functional.
Data set [17] deals with MCF7. Kind of data set: Induction of apoptosis in human MCF7 cells assessed as apoptotic cells at 275 uM after 4 hrs by FITC Annexin-V/propidium iodide staining-based flow cytometry (reference value: 29.60%). Type of data set: functional.
Data set [18] relates to HeLa. Briefly: Induction of apoptosis in human HeLa cells assessed as viable cells at 69 uM after 4 hrs by FITC Annexin-V/propidium iodide staining-based flow cytometry (reference value: 87.00%). The class given is functional. The settings on record: read-out: Activity.
Data set [19] deals with HeLa. Kind of data set: Induction of apoptosis in human HeLa cells assessed as viable cells at 550 uM after 4 hrs by FITC Annexin-V/propidium iodide staining-based flow cytometry (reference value: 87.00%). Type of data set: functional. As to conditions: read-out: Activity.
The test system of data set [20] is HeLa. Briefly: Induction of apoptosis in human HeLa cells assessed as apoptotic cells at 69 uM after 4 hrs by FITC Annexin-V/propidium iodide staining-based flow cytometry (reference value: 13.00%). The class given is functional.
Data set [21] relates to HeLa. Kind of data set: Induction of apoptosis in human HeLa cells assessed as apoptotic cells at 550 uM after 4 hrs by FITC Annexin-V/propidium iodide staining-based flow cytometry (reference value: 13.00%). Type of data set: functional.
Data set [22] in a line: Lipophilicity, log P of the compound. Type of data set: physicochemical. As to conditions: octanol/water.
Data set [23] relates to A549. Kind of data set: Induction of apoptosis in human A549 cells assessed as viable cells at 34 uM after 4 hrs by FITC Annexin-V/propidium iodide staining-based flow cytometry (reference value: 84.40%). Type of data set: functional. The settings on record: A549, 4 h, read-out: Activity.
Data set [24] has as its system A549. Briefly: Induction of apoptosis in human A549 cells assessed as viable cells at 275 uM after 4 hrs by FITC Annexin-V/propidium iodide staining-based flow cytometry (reference value: 84.40%). Type of data set: functional. As to conditions: A549, 4 h, read-out: Activity.
The test system of data set [25] is A549. Kind of data set: Induction of apoptosis in human A549 cells assessed as apoptotic cells at 34 uM after 4 hrs by FITC Annexin-V/propidium iodide staining-based flow cytometry (reference value: 15.60%). Type of data set: functional.
Data set [26] concerns A549. Kind of data set: Induction of apoptosis in human A549 cells assessed as apoptotic cells at 275 uM after 4 hrs by FITC Annexin-V/propidium iodide staining-based flow cytometry (reference value: 15.60%). The class given is functional.
The test system of data set [27] is MCF7. Briefly: Induction of apoptosis in human MCF7 cells assessed as viable cells at 17 uM after 4 hrs by FITC Annexin-V/propidium iodide staining-based flow cytometry (reference value: 70.40%). The class given is functional. As to conditions: MCF7, 4 h, read-out: Activity.
Data set [28] concerns MCF7. Kind of data set: Induction of apoptosis in human MCF7 cells assessed as viable cells at 137 uM after 4 hrs by FITC Annexin-V/propidium iodide staining-based flow cytometry (reference value: 70.40%). The class given is functional. The settings on record: MCF7, 4 h, read-out: Activity.
The test system of data set [29] is MCF7. Kind of data set: Induction of apoptosis in human MCF7 cells assessed as apoptotic cells at 17 uM after 4 hrs by FITC Annexin-V/propidium iodide staining-based flow cytometry (reference value: 29.60%). The class given is functional.
For data set [30], the system named is MCF7. Kind of data set: Induction of apoptosis in human MCF7 cells assessed as apoptotic cells at 137 uM after 4 hrs by FITC Annexin-V/propidium iodide staining-based flow cytometry (reference value: 29.60%). The class given is functional.
In data set [31] the test system is HeLa. Briefly: Induction of apoptosis in human HeLa cells assessed as viable cells at 17 uM after 4 hrs by FITC Annexin-V/propidium iodide staining-based flow cytometry (reference value: 87.00%). The class given is functional. As to conditions: read-out: Activity.
Data set [32] deals with HeLa. Kind of data set: Induction of apoptosis in human HeLa cells assessed as viable cells at 137 uM after 4 hrs by FITC Annexin-V/propidium iodide staining-based flow cytometry (reference value: 87.00%). The class given is functional. As to conditions: read-out: Activity.
The test system of data set [33] is HeLa. Briefly: Induction of apoptosis in human HeLa cells assessed as apoptotic cells at 17 uM after 4 hrs by FITC Annexin-V/propidium iodide staining-based flow cytometry (reference value: 13.00%). The class given is functional.
In data set [34] the test system is HeLa. Briefly: Induction of apoptosis in human HeLa cells assessed as apoptotic cells at 137 uM after 4 hrs by FITC Annexin-V/propidium iodide staining-based flow cytometry (reference value: 13.00%). Type of data set: functional.

In general, IC50 refers to the concentration needed to halve the response being measured. Low readings indicate higher potency, high ones lower potency. As usually defined, the logP is a log measure of how a compound divides between an organic and an aqueous phase. As to `O=C1C[C@H](S[C@@H]2O[C@H](CO)[C@@H](O)[C@H](O)[C@H]2O)[C@H]2CO[C@@H]1O2`, the concentration for half-maximal inhibition (IC50) in the data set on A549 [1] was 692 µM; in the data set with HeLa [2], 1080 µM; in the data set with MCF7 [3], 366 µM; with LoVo [4] it was 772 µM. In addition, the Activity in data set [5] is 10%; in the data set with LoVo [8] it was 29%; in the data set with LoVo [9], 37.65%; in the data set with A549 [12], 29.7%; in the data set with A549 [13], 25.7%; in the data set with MCF7 [16], 24.9%. The Activity in the data set on MCF7 [17] amounted to 73.6%; with HeLa [20] it was 17.4%; with HeLa [21], 32.8%. The viability at 69 µM came out at 71% in the data set with LoVo [6], 70.3% with A549 [10] and 82.6% in the data set with HeLa [18]. For the same compound, the results for the viability at 550 µM in the data set with LoVo [7], in the data set with A549 [11] and in the data set with HeLa [19] were 62.4%, 74.3% and 67.2%, respectively. Further, the viability at 34 µM in the data set with MCF7 [14] was determined as 75.1%. Further, in the data set on MCF7 [15], the viability at 275 µM was determined as 26.4%. In addition, in data set [22], the lipophilicity (logP) was -2.05.
With `O=C(O)c1ccccc1S[C@H]1CC(=O)[C@@H]2OC[C@H]1O2`, the IC50 stood at 311 µM with A549 [1], 434 µM with HeLa [2], 218 µM in the data set on MCF7 [3] and 641 µM in the data set on LoVo [4]. Further, the Activity was 10% in [5]; 29.1% with LoVo [8]; 62.2% in the data set with LoVo [9]; 27.4% in the data set on A549 [25]; 37.84% in the data set with A549 [26]; 39.1% in the data set with MCF7 [29]. The values for the Activity with MCF7 [30], in the data set with HeLa [33] and in the data set with HeLa [34] were 62.5%, 24.5% and 25.8%, respectively. Moreover, the viability at 69 µM in the data set on LoVo [6] was determined as 70.9%. Moreover, the viability at 550 µM in the data set on LoVo [7] worked out at 37.8%. In the data set with A549 [23], the viability at 34 µM was determined as 72.6%. In the data set with A549 [24], the viability at 275 µM is 62.2%. Further, the viability at 17 µM came to 60.9% in the data set on MCF7 [27] and 75.5% in the data set on HeLa [31]. The viability at 137 µM in the data set with MCF7 [28] stood at 37.5%; in the data set with HeLa [32], 74.2%. The compound further yielded a logP in data set [22] of 1.28.
